From PubChem BioAssay (NCI)
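Exposure lasted 48 hours, with cells grown in 96-well plates and compounds tested at five concentrations. GI50 marks 50% less growth. The concentration for full growth arrest is given as TGI.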

Legend:
Test in all cases: DTP human tumour cell line panel, 48 h
[1] = test system: 786-0 renal
[2] = test system: A498 renal
[3] = test system: A549 NSCLC
[4] = test system: ACHN renal
[5] = test system: BT-549 breast
[6] = test system: CAKI-1 renal
[7] = test system: CCRF-CEM leukemia
[8] = test system: COLO 205 colon
[9] = test system: DU-145 prostate
[10] = test system: EKVX NSCLC
[11] = test system: HCC-2998 colon
[12] = test system: HCT-116 colon
[13] = test system: HCT-15 colon
[14] = test system: HL-60(TB) leukemia
[15] = test system: HOP-62 NSCLC
[16] = test system: HOP-92 NSCLC
[17] = test system: HS 578T breast
[18] = test system: HT29 colon
[19] = test system: IGROV1 ovarian
[20] = test system: K-562 leukemia
[21] = test system: KM12 colon
[22] = test system: LOX IMVI melanoma
[23] = test system: M14 melanoma
[24] = test system: MALME-3M melanoma
[25] = test system: MCF7 breast
[26] = test system: MDA-MB-231 breast
[27] = test system: MDA-MB-435
[28] = test system: MOLT-4 leukemia
[29] = test system: NCI-H226 lung
[30] = test system: NCI-H23 lung
[31] = test system: NCI-H460 lung
[32] = test system: NCI-H522 lung
[33] = test system: NCI/ADR-RES ovarian
[34] = test system: OVCAR-3 ovarian
[35] = test system: OVCAR-4 ovarian
[36] = test system: OVCAR-5 ovarian
[37] = test system: OVCAR-8 ovarian
[38] = test system: PC-3 prostate
[39] = test system: RPMI-8226 leukemia
[40] = test system: RXF 393 renal
[41] = test system: SF-268 CNS
[42] = test system: SF-295 CNS
[43] = test system: SF-539 CNS
[44] = test system: SK-MEL-2 melanoma
[45] = test system: SK-MEL-28 melanoma
[46] = test system: SK-MEL-5 melanoma
[47] = test system: SK-OV-3 ovarian
[48] = test system: SN12C renal
[49] = test system: SNB-19 CNS
[50] = test system: SNB-75 CNS
[51] = test system: SR leukemia
[52] = test system: SW-620 colon
[53] = test system: T-47D breast
[54] = test system: TK-10 renal
[55] = test system: U251 CNS
[56] = test system: UACC-257 melanoma
[57] = test system: UACC-62 melanoma
[58] = test system: UO-31 renal

Question: Which results are given for `Cc1ccc(NS(=O)(=O)c2ccc(-c3cnc(C4CC4)o3)cc2)cc1C`?
Answer: GI50 [1]: 544 nM; TGI [1]: > 37800 nM; GI50 [2]: 228 nM; TGI [2]: 932 nM; GI50 [3]: 751 nM; TGI [3]: > 49200 nM; GI50 [4]: 673 nM; TGI [4]: > 33900 nM; GI50 [5]: 715 nM; TGI [5]: 13700 nM; GI50 [6]: 385 nM; TGI [6]: > 42100 nM; GI50 [7]: 433 nM; TGI [7]: > 59300 nM; GI50 [8]: 464 nM; TGI [8]: 1840 nM; GI50 [9]: 972 nM; TGI [9]: > 68700 nM; GI50 [10]: 713 nM; TGI [10]: > 45400 nM; GI50 [11]: 1570 nM; TGI [11]: > 32800 nM; GI50 [12]: 394 nM; TGI [12]: 10800 nM; GI50 [13]: 302 nM; TGI [13]: > 33200 nM; GI50 [14]: 259 nM; TGI [14]: 1460 nM; GI50 [15]: 557 nM; TGI [15]: > 40100 nM; GI50 [16]: 308 nM; TGI [16]: 3350 nM; GI50 [17]: 450 nM; TGI [17]: 5770 nM; GI50 [18]: 330 nM; TGI [18]: 1570 nM; GI50 [19]: 593 nM; TGI [19]: > 43300 nM; GI50 [20]: < 37.3 nM; TGI [20]: > 68400 nM; GI50 [21]: 279 nM; TGI [21]: > 32600 nM; GI50 [22]: 524 nM; TGI [22]: > 32300 nM; GI50 [23]: 375 nM; TGI [23]: 11800 nM; GI50 [24]: 683 nM; TGI [24]: 18100 nM; GI50 [25]: 279 nM; GI50 [26]: 797 nM; TGI [26]: 15900 nM; GI50 [27]: < 25.2 nM; TGI [27]: 2460 nM; GI50 [28]: 583 nM; TGI [28]: > 52700 nM; GI50 [29]: 843 nM; TGI [29]: > 28400 nM; GI50 [30]: 1130 nM; TGI [30]: > 57800 nM; GI50 [31]: 481 nM; TGI [31]: 11500 nM; GI50 [32]: 267 nM; TGI [32]: 3280 nM; GI50 [33]: 407 nM; TGI [33]: > 41800 nM; GI50 [34]: 342 nM; TGI [34]: 12500 nM; GI50 [35]: 912 nM; TGI [35]: 10400 nM; GI50 [36]: 1310 nM; TGI [36]: > 38800 nM; GI50 [37]: 916 nM; TGI [37]: > 55900 nM; GI50 [38]: 432 nM; TGI [38]: > 27600 nM; GI50 [39]: 450 nM; TGI [39]: > 25400 nM; GI50 [40]: 338 nM; TGI [40]: 3890 nM; GI50 [41]: 1110 nM; TGI [41]: > 36800 nM; GI50 [42]: 407 nM; TGI [42]: 3470 nM; GI50 [43]: 366 nM; TGI [43]: 1770 nM; GI50 [44]: 797 nM; TGI [44]: 14400 nM; GI50 [45]: 1260 nM; TGI [45]: > 45400 nM; GI50 [46]: 390 nM; TGI [46]: 1700 nM; GI50 [47]: 917 nM; TGI [47]: > 29100 nM; GI50 [48]: 711 nM; TGI [48]: > 34000 nM; GI50 [49]: 522 nM; TGI [49]: > 63800 nM; GI50 [50]: 184 nM; TGI [50]: 823 nM; GI50 [51]: 476 nM; TGI [51]: > 100000 nM; GI50 [52]: 341 nM; TGI [52]: > 72200 nM; GI50 [53]: 373 nM; TGI [53]: 16700 nM; GI50 [54]: 1440 nM; TGI [54]: 8030 nM; GI50 [55]: 458 nM; TGI [55]: > 33900 nM; GI50 [56]: 836 nM; TGI [56]: 9550 nM; GI50 [57]: 383 nM; TGI [57]: > 38000 nM; GI50 [58]: 839 nM; TGI [58]: 7740 nM
